# Measurements: PMC5522084, “Eg5 inhibitor YL001 induces mitotic arrest and inhibits tumor proliferation” (Oncotarget, 2017)
# What was measured:
# HeLa cells = assay: Monopolar spindle phenotype, high content imaging; format: cell-based; conditions: Homo sapiens, 8 hours, analyzed with Columbus, read-out: EC50 for monopolar spindles
# Description: HeLa cells (5 × 10^3 cells/well) were seeded in 96-well plates (Corning, 3603). Drugs were diluted appropriately in medium from 10 mM stocks in 100% DMSO and added to the cells. Following 8 hours incubation with drugs, cells were fixed with 4% paraformaldehyde (20 minutes at room temperature), permeabilized with PBST (0.5% Triton X-100 in PBS) for 15 minutes, and washed before blocking. Cells were blocked with 4% BSA for at least 30 minutes at room temperature and stained with anti-β-tubulin monoclonal antibodies (Sigma) at 400-fold dilution for 1 hour with Alexafluor 488-conjugated goat anti-mouse secondary antibodies (Invitrogen) at 300-fold dilution for 1 hour. DNA was detected with 4′,6-diamidino-2-phenylindole dihydrochloride (DAPI). Actin was detected with Phalloidin. High content screening (Perkin Elmer Operetta) was used to photograph stained cells at 40× magnification, and Columbus software was used for statistical analysis of the percentage of mitotic cells with monopolar spindles present in treated cells over the total number of cells in mitosis counted after 8 hours incubation with drugs.
# AGS = assay: Antiproliferation assay (Alamar Blue), AGS; format: cell-based; conditions: Homo sapiens, stomach cancer, read-out: EC50 of YL001
# Description: (§1) Cytotoxic activities of the compounds of interest were investigated with human cancer cell lines using the Alamar Blue assay. Cells (5 × 10^3 cells/well) were seeded into 96-well plates (Corning, 3603). Various sample concentrations (compounds of interest) were added to each well in duplicate, and incubated at 37°C with 5% CO2 for two days such that cells were in the exponential growth phase at the time of drug addition. Ten microliters of the Alamar Blue Solution (Invitrogen, Alamar Blue) were added to each well and incubated at 37°C for up to 2 hours in a humidified, 5% CO2 atmosphere. After incubation, florescence was measured using a microplate reader (Tecan) at an excitation wavelength of 540 nm and emission of 590 nm. Each inhibitory concentration was measured in triplicate, and averaged data points ± SD are shown. Statistical analysis was carried out with GraphPad Prism 5 and the fifty-percent effective concentration is expressed as EC50.
# HeLa = assay: Antiproliferation assay (Alamar Blue), HeLa; format: cell-based; conditions: Homo sapiens, 48 h, HeLa cell line, two days
# Description: as §1
# [1] = Nucleophilic addition assay; conditions: incubated with cysteine and lysine for 24 hours at 37°C
# Description: 0.5 mmol YL001 was solved in a solution of THF/H2O (v:v = 1:1) and stirred with nucleophiles (0.5 mmol L-cysteine or L-lysine) at 37°C for 24 hours. Products were then validated by HRMS.
# HCT116 = assay: Antiproliferation assay (Alamar Blue), HCT116; format: cell-based; conditions: Homo sapiens, HCT-116; HCT116, colon cancer; read-out: EC50 of YL001
# Description: as §1
# [2] = test system: panel of 468 typical, atypical and mutant human kinases; assay: Kinase profiling (KINOMEscan, DiscoverX); format: binding; conditions: 468 kinases, 1 μM
# Description: Kinase profiling was conducted by the DiscoverX as KINOMEscan profiling service for testing the inhibition of YL001 of interest against 468 kinases. Selectivity score S(35) was defined as follows:
# S(35) = (number of non-mutant kinases with% Control < 35)/(number of non-mutant kinases tested).
# Eg5 = Eg5 (Homo sapiens, UniProt P52732); assay: Inhibition of Eg5 ATPase activity; format: biochemical; conditions: read-out: Enzyme EC50
# Description: All experiments were performed as previously described. Data were analyzed using GraphPad Prism 5 and Microsoft Excel to obtain EC50 values. […] Each inhibitory concentration was measured in triplicate, and averaged data points ± SD are shown.
# Pharmacokinetic study = format: in vivo; conditions: BALB/c nude, mouse, plasma, ip; 200 mg/kg intraperitoneally, single dose, HeLa xenograft nude mice
# Description: A HPLC-MS/MS method was developed for single-dose pharmacokinetic (PK) study of YL001 in HeLa xenograft BALB/c nude mice. YL001 was administered intraperitoneally at a dose of 200 mg/kg. Blood samples were then collected by enucleating eyeballs at 0.083, 0.167, 0.333, 0.5, 1, 2, 6, 12, 24 hours in heparinized polypropylene tubes. Three mice were sacrificed at each time point. Samples were centrifuged immediately at 4000 r/min for 20 min to separate plasma. The final sample for HPLC-MS/MS detection by QTRAP 6500 (AB Sciex, USA) was a mixture (plasma: H2O: methanol = 1:1:8). All individual data were pooled together to further perform PK analysis. DAS 2.1.2 were used to estimate PK parameters by non-compartmental analysis.
# B16 = assay: Antiproliferation assay (Alamar Blue), B16; format: cell-based; conditions: B16, mouse melanoma; read-out: EC50 of YL001
# Sequence of Eg5 (P52732 whole entry): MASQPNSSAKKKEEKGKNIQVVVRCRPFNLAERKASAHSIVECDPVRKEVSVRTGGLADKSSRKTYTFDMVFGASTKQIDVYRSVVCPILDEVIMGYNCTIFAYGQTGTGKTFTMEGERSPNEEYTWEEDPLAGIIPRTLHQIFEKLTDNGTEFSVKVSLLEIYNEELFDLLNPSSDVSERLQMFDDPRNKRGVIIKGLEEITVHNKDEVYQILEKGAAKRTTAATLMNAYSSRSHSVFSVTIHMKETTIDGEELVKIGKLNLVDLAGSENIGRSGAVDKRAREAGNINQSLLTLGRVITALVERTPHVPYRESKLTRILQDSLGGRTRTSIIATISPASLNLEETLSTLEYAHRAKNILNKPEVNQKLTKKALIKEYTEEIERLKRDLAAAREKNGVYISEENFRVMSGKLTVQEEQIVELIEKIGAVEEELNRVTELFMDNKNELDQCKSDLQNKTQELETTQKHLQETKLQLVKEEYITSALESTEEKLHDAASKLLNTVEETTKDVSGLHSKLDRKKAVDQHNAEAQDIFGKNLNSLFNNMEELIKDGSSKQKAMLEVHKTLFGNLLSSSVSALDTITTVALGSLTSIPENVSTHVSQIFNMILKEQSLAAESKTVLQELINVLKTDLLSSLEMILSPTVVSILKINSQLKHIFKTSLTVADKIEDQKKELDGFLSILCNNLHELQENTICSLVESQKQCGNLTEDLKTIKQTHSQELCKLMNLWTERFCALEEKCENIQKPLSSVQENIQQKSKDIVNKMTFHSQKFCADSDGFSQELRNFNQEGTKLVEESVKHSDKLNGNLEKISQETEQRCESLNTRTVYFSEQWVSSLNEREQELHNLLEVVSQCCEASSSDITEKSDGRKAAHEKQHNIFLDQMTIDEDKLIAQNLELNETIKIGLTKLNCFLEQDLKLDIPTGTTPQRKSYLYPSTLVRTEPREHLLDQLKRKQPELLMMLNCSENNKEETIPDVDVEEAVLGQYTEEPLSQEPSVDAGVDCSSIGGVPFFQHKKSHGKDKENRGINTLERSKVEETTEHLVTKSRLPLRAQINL
smiles,measurement,setting,value
"Cc1ccc(-n2nnnc2/C(=C/N(C)C)C(=O)c2cccc(C(F)(F)F)c2)cc1 [YL001, (Z)-3-(dimethylamino)-2-(1-(p-tolyl)-1H-tetrazol-5-yl)-1-(3-(trifluoromethyl)phenyl)prop-2-en-1-one]",EC50,HeLa cells,15.3 µM
same,EC50,AGS,20.2 ± 0.01 µM
same,EC50,HeLa,14.3 ± 0.78 µM
same,reaction with nucleophiles (new products by HRMS),[1],no new products were detected
same,EC50,HCT116,9.04 ± 2.19 µM
same,activity against kinase panel,[2],no activity
same,EC50,Eg5,1.18 µM
same,half-life,Pharmacokinetic study,5.3 h
same,EC50,B16,13.9 ± 5.03 µM
